US20160309764A1, “FOOD COMPOSITION COMPRISING FERROUS PICOLINATE” (NESTEC S.A., priority 2013, published 2016)
“Also recorded” adds a separate entry of the source.

Tests used:
[1] = Colour difference of iron fortified strawberry-banana yoghurt after flash pasteurization versus yoghurt with no iron salts (CIELAB); assay type: physicochemical; conditions: approx. 0.8 mg iron per 100 g, pasteurized at 105° C. for 2 minutes
Procedure: Commercial yoghurt, Nestlé Jogolino™ Strawberry/Banana yoghurt containing 15% banana puree and 10% strawberry puree was iron fortified by the addition of different iron salts to 5 kg yoghurt as reported in the table below. The amounts were chosen to provide approximately 0.8 mg iron per 100 g yoghurt. […] Colour measurements were performed in 1×1 cm polystyrene cuvettes using an X-Rite ColorEye 7000A colorimeter. The colorimeter was set up with a D65 light source, 10 degree observer angle and with specular component included. The colour difference between the yoghurt with no iron salts and the iron fortified yoghurt was measured for each iron salt and expressed as ΔEab* using the CIELAB colour scale.

[2] = Colour change of fortified pasteurized yoghurts on storage at 37° C. versus colour immediately after pasteurization (CIELAB); assay type: physicochemical; conditions: stored at 37° C.; for ΔEab* day 7: day 7, versus colour immediately after pasteurization; for ΔEab* day 30: day 30, versus colour immediately after pasteurization; for ΔEab* day 60: day 60, versus colour immediately after pasteurization; for ΔEab* day 120: day 120, versus colour immediately after pasteurization

Compound	ΔEab* [1]	ΔEab* day 7 [2]	ΔEab* day 30 [2]	ΔEab* day 30 ([2]; listed as ferrous sulphate)	ΔEab* day 60 [2]	ΔEab* day 120 [2]	ΔEab* ([1]; listed as ferrous picolinate)	colour change over time ([2]; up to 120 days, compared with the other iron salts)
O=S(=O)([O-])[O-].[Fe+2] [FeSO4 × H2O, Ferrous sulphate]	4.74	0.78	3.27	much greater colour changes	5.91	10.34		
O=C([O-])CN(CCN(CC(=O)[O-])CC(=O)[O-])CC(=O)[O-].[Fe+3].[Na+] [NaFeEDTA × H2O, ferric sodium EDTA]	3.11	0.96	4.16		6.93	9.37		
Ferrous picolinate	1.28	0.51	2.18		4.66	8.19	closer in colour to unfortified yoghurts; also recorded: closest colour to the yoghurt with no added iron	smaller than the yoghurts fortified by the other iron salts
